Square brackets hold non-standard residues; d marks the D form. Peptide text beside a SMILES is read from it.

This passage reports inhibition and IC50 results from patent US5624902A, “Peptide inhibitors of calmodulin” (Torrey Pines Institute for Molecular Studies, priority 1995, dated 1997).

This assay has as its target calmodulin (Homo sapiens, UniProt P0DP23). Description: calcium-dependent phosphodiesterase assay (inhibition of calmodulin activity). The settings on record: for inhibition at 50 µM: inhibition of calmodulin activation of phosphodiesterase at 50 μM peptide, PDE without calmodulin = 100%, Calmo = 0%; for IC50: concentration inhibiting 50% of calmodulin activity, assayed at 75 μM, 50 μM and 12.5 μM. Format: biochemical.

Method: In this assay, calmodulin can be assayed by its ability to stimulate phosphodiesterase activity as determined by a two-step assay procedure illustrated by reactions (1) and (2).
During the first step of the assay cyclic adenosine 3'5'-monophosphate (cAMP) is incubated with calcium-activated phosphodiesterase (Cal-PDE), which hydrolyses the 3' bond producing adenosine 5'-monophosphate (5'-AMP). During the second step 5'-AMP is quantitatively converted into adenosine and inorganic phosphate (Pi) through the action of a 5'-nucleotidase. […] The amount of Pi formed is directly related to the phosphodiesterase activity which depends on the level of activation by calmodulin.
To sample assay tubes were added the following components: assay buffer, 25 μl; CaCl2, 5 μl; 5'-nucleotidase, 7.5 μl (stock solution is 10 units/ml); calmodulin 5 units; calmodulin inhibitor peptides to obtain the desired final concentration of 50 μM. The volume was then made up to 200 μl with water. Control blanks were prepared replacing the peptides with water. The added components were thoroughly mixed and the tubes incubated at 30° C. for 10 min. […] The samples were centrifuged to remove the protein precipitate and the 50 μl of the supernatant was withdrawn for phosphate measurement. […] The absorbance of the solution were read at 660 nm using water as a blank, identified as control "Calmo," as discussed in more detail below.
These three peptides commonly used in every assay as control of reproducibility of the assay.
In addition to the calcium-dependent phosphodiesterase assay data, IC50 values were determined for many of the peptides. The assay carried out for the determination in the IC50 values differed from the above screening assay by the concentration of the peptides being tested.
(2) W13: N-(4-aminobutyl)-5-chloro-2-naphtalenesulfonamide; (3) TFP: trifluoperazine; (4) Calmidasolium: (1-[bis-(4-chlorophenyl)methyl]-3[-2-(2,4-dichlorophenyl)-2[(2,4-dichlorophenyl)methoxy]-ethyl]-1H-imidazolium chloride. The IC50 values were calculated using sigmoidal curve software (Graphpad, ISI, San Diego) using the % inhibition at different mixture concentrations (see attached protocol for determination of % inhibition).

On to `CC(=O)N[C@H](CC(C)C)C(=O)N[C@H](CCC(N)=O)C(=O)N[C@H](CCCNC(=N)N)C(=O)N[C@H](Cc1c[nH]cn1)C(=O)N[C@H](CC(C)C)C(=O)N[C@H](Cc1c[nH]c2ccccc12)C(N)=O` [Ac-(D)Leu-(D)Gln-(D)Arg-(D)His-(D)Leu-(D)Trp-NH2] (Ac-[dL][dQ][dR][dH][dL][dW]-NH2), for which the inhibition – broadly, the relative decrease from the control value, in per cent – at 50 µM is 44.7%.
`CC[C@@H](C)[C@@H](NC(=O)[C@@H](Cc1c[nH]c2ccccc12)NC(=O)[C@@H](CC(C)C)NC(C)=O)C(=O)N[C@H](Cc1c[nH]cn1)C(=O)N[C@H](CC(C)C)C(=O)N[C@H](CCCNC(=N)N)C(N)=O` [Ac-(D)Leu-(D)Trp-(D)Ile-(D)His-(D)Leu-(D)-Arg-NH2] (Ac-[dL][dW][dI][dH][dL][dR]-NH2): the IC50 – broadly, the concentration that inhibits the measured activity by half – came out at 12 µM and the inhibition at 50 µM worked out at 103%.
With `CC[C@@H](C)[C@@H](NC(=O)[C@@H](CCCNC(=N)N)NC(=O)[C@@H](Cc1c[nH]c2ccccc12)NC(=O)[C@@H](CC(C)C)NC(C)=O)C(=O)N[C@H](Cc1c[nH]cn1)C(=O)N[C@H](Cc1c[nH]c2ccccc12)C(N)=O` [Ac-(D)Leu-(D)Trp-(D)Arg-(D)Ile-(D)His-(D)Trp-NH2] (Ac-[dL][dW][dR][dI][dH][dW]-NH2), the inhibition at 50 µM stood at 52.6%.
With `CC[C@@H](C)[C@@H](NC(=O)[C@@H](CCCNC(=N)N)NC(=O)[C@@H](CCC(N)=O)NC(=O)[C@@H](CC(C)C)NC(C)=O)C(=O)N[C@H](CC(C)C)C(=O)N[C@H](Cc1c[nH]c2ccccc12)C(N)=O` [Ac-(D)Leu-(D)Gln-(D)Arg-(D)Ile-(D)Leu-(D)Trp-NH2] (Ac-[dL][dQ][dR][dI][dL][dW]-NH2), the IC50 was greater than 50 µM and the inhibition at 50 µM is 44.5%.
Consider `CC[C@@H](C)[C@@H](NC(=O)[C@@H](Cc1c[nH]c2ccccc12)NC(=O)[C@@H](CC(C)C)NC(C)=O)C(=O)N[C@@H](C(=O)N[C@H](Cc1c[nH]cn1)C(=O)N[C@H](CCCNC(=N)N)C(N)=O)[C@H](C)CC` [Ac-(D)Leu-(D)Trp-(D)Ile-(D)Ile-(D)His-(D)Arg-NH2] (Ac-[dL][dW][dI][dI][dH][dR]-NH2), for which the IC50 came out at 43 µM and the inhibition at 50 µM was 89.5%.
For the compound `CC[C@@H](C)[C@@H](NC(=O)[C@@H](CCC(N)=O)NC(=O)[C@@H](CC(C)C)NC(C)=O)C(=O)N[C@H](Cc1c[nH]cn1)C(=O)N[C@H](Cc1c[nH]cn1)C(=O)N[C@H](Cc1c[nH]c2ccccc12)C(N)=O` [Ac-(D)Leu-(D)Gln-(D)Ile-(D)His-(D)His-(D)Trp-NH2] (Ac-[dL][dQ][dI][dH][dH][dW]-NH2), the IC50 was determined as 76 µM and the inhibition at 50 µM was 60.5%.
With `CC[C@@H](C)[C@@H](NC(=O)[C@@H](CCC(N)=O)NC(=O)[C@@H](CC(C)C)NC(C)=O)C(=O)N[C@@H](C(=O)N[C@H](Cc1c[nH]cn1)C(=O)N[C@H](CCCNC(=N)N)C(N)=O)[C@H](C)CC` [Ac-(D)Leu-(D)Gln-(D)Ile-(D)Ile-(D)His-(D)Arg-NH2] (Ac-[dL][dQ][dI][dI][dH][dR]-NH2), the inhibition at 50 µM was determined as 43.4%.
Consider `CC(=O)N[C@H](CC(C)C)C(=O)N[C@H](CCC(N)=O)C(=O)N[C@H](CCCNC(=N)N)C(=O)N[C@H](Cc1c[nH]cn1)C(=O)N[C@H](CC(C)C)C(=O)N[C@H](CCCNC(=N)N)C(N)=O` [Ac-(D)Leu-(D)Gln-(D)Arg-(D)His-(D)Leu-(D)Arg-NH2] (Ac-[dL][dQ][dR][dH][dL][dR]-NH2), for which the inhibition at 50 µM came to 64.5%.
For the compound `CC[C@@H](C)[C@@H](NC(=O)[C@@H](CCCNC(=N)N)NC(=O)[C@@H](CCC(N)=O)NC(=O)[C@@H](CC(C)C)NC(C)=O)C(=O)N[C@H](Cc1c[nH]cn1)C(=O)N[C@H](CCCNC(=N)N)C(N)=O` [Ac-(D)Leu-(D)Gln-(D)Arg-(D)Ile-(D)His-(D)Arg-NH2] (Ac-[dL][dQ][dR][dI][dH][dR]-NH2), the IC50 is greater than 50 µM and the inhibition at 50 µM stood at 21.1%.
`CC[C@H](C)[C@H](NC(=O)[C@H](Cc1ccccc1)NC(C)=O)C(=O)N[C@H](C(=O)N[C@@H](Cc1c[nH]c2ccccc12)C(=O)N[C@@H](Cc1ccccc1)C(=O)N[C@@H](CCC(=O)O)C(N)=O)[C@@H](C)CC` [Ctr 3, Ac-Phe-Ile-Ile-Trp-Phe-Glu-NH2, reference compound] (Ac-FIIWFE-NH2): the inhibition at 50 µM is 107%.
Turning to `CC[C@@H](C)[C@@H](NC(=O)[C@@H](Cc1c[nH]c2ccccc12)NC(=O)[C@@H](CC(C)C)NC(C)=O)C(=O)N[C@@H](C(=O)N[C@H](Cc1c[nH]cn1)C(=O)N[C@H](Cc1c[nH]c2ccccc12)C(N)=O)[C@H](C)CC` [Ac-(D)Leu-(D)Trp-(D)Ile-(D)Ile-(D)His-(D)Trp-NH2] (Ac-[dL][dW][dI][dI][dH][dW]-NH2), the 50% inhibitory concentration (IC50) was no more than 9 µM and the inhibition at 50 µM was determined as 92.1%.
With `CC(=O)N[C@H](CC(C)C)C(=O)N[C@H](Cc1c[nH]c2ccccc12)C(=O)N[C@H](CCCNC(=N)N)C(=O)N[C@H](Cc1c[nH]cn1)C(=O)N[C@H](Cc1c[nH]cn1)C(=O)N[C@H](CCCNC(=N)N)C(N)=O` [Ac-(D)Leu-(D)Trp-(D)Arg-(D)His-(D)His-(D)Arg-NH2] (Ac-[dL][dW][dR][dH][dH][dR]-NH2), the inhibition at 50 µM turned out to be 57.9%.
`CC[C@@H](C)[C@@H](NC(=O)[C@@H](CCCNC(=N)N)NC(=O)[C@@H](Cc1c[nH]c2ccccc12)NC(=O)[C@@H](CC(C)C)NC(C)=O)C(=O)N[C@H](CC(C)C)C(=O)N[C@H](CCCNC(=N)N)C(N)=O` [Ac-(D)Leu-(D)Trp-(D)Arg-(D)Ile-(D)Leu-(D)Arg-NH2] (Ac-[dL][dW][dR][dI][dL][dR]-NH2): the IC50 is 15 µM and the inhibition at 50 µM amounted to 107%.
For the compound `CC[C@@H](C)[C@@H](NC(=O)[C@@H](CCC(N)=O)NC(=O)[C@@H](CC(C)C)NC(C)=O)C(=O)N[C@H](Cc1c[nH]cn1)C(=O)N[C@H](CC(C)C)C(=O)N[C@H](Cc1c[nH]c2ccccc12)C(N)=O` [Ac-(D)Leu-(D)Gln-(D)Ile-(D)His-(D)Leu-(D)Trp-NH2] (Ac-[dL][dQ][dI][dH][dL][dW]-NH2), the inhibition at 50 µM was 46%.
Consider `CC[C@@H](C)[C@@H](NC(=O)[C@@H](CCCNC(=N)N)NC(=O)[C@@H](Cc1c[nH]c2ccccc12)NC(=O)[C@@H](CC(C)C)NC(C)=O)C(=O)N[C@H](Cc1c[nH]cn1)C(=O)N[C@H](CCCNC(=N)N)C(N)=O` [Ac-(D)Leu-(D)Trp-(D)Arg-(D)Ile-(D)His-(D)Arg-NH2] (Ac-[dL][dW][dR][dI][dH][dR]-NH2), for which the IC50 was 32 µM and the inhibition at 50 µM worked out at 68.4%.
With `CC[C@@H](C)[C@@H](NC(=O)[C@@H](Cc1c[nH]c2ccccc12)NC(=O)[C@@H](CC(C)C)NC(C)=O)C(=O)N[C@@H](C(=O)N[C@H](CC(C)C)C(=O)N[C@H](Cc1c[nH]c2ccccc12)C(N)=O)[C@H](C)CC` [Ac-(D)Leu-(D)Trp-(D)Ile-(D)Ile-(D)Leu-(D)Trp-NH2] (Ac-[dL][dW][dI][dI][dL][dW]-NH2), the IC50 was greater than 50 µM and the inhibition at 50 µM turned out to be 23.7%.
With `CSCC[C@@H](NC(=O)[C@@H](Cc1c[nH]cn1)NC(=O)[C@@H](Cc1ccccc1)NC(=O)[C@@H](Cc1ccccc1)NC(C)=O)C(=O)N[C@H](CCSC)C(=O)N1CCC[C@@H]1C(N)=O` [Ctr 1, Ac-(D)Phe-(D)Phe-(D)His-(D)-Met-(D)Met-(D)Pro-NH2, reference compound] (Ac-[dF][dF][dH][dM][dM][dP]-NH2), the inhibition at 50 µM was determined as 36.8%.
